Where two headings read alike, the source gives them in different places.
Assays:
[1] = molecular target: MLL1 Complex (Homo sapiens, UniProt Q03164); test: HotSpot [3H]SAM filter-binding methyltransferase assay; type: biochemical; parameters: gene KMT2A; five-member complex, His-tagged subunits, E. coli; ASH2L isoform of NM_001105214; with WD repeat-containing protein 5; Set1/Ash2 histone methyltransferase complex subunit ASH2; Protein dpy-30 homolog
[2] = molecular target: T1, NSD2 (Homo sapiens, UniProt O96028, E1099K); test: as above; type: biochemical
T1 construct: full length (residues 2-1365), N-terminal His tag, insect cell/baculovirus
T1 sequence (O96028 2-1365 E1099K): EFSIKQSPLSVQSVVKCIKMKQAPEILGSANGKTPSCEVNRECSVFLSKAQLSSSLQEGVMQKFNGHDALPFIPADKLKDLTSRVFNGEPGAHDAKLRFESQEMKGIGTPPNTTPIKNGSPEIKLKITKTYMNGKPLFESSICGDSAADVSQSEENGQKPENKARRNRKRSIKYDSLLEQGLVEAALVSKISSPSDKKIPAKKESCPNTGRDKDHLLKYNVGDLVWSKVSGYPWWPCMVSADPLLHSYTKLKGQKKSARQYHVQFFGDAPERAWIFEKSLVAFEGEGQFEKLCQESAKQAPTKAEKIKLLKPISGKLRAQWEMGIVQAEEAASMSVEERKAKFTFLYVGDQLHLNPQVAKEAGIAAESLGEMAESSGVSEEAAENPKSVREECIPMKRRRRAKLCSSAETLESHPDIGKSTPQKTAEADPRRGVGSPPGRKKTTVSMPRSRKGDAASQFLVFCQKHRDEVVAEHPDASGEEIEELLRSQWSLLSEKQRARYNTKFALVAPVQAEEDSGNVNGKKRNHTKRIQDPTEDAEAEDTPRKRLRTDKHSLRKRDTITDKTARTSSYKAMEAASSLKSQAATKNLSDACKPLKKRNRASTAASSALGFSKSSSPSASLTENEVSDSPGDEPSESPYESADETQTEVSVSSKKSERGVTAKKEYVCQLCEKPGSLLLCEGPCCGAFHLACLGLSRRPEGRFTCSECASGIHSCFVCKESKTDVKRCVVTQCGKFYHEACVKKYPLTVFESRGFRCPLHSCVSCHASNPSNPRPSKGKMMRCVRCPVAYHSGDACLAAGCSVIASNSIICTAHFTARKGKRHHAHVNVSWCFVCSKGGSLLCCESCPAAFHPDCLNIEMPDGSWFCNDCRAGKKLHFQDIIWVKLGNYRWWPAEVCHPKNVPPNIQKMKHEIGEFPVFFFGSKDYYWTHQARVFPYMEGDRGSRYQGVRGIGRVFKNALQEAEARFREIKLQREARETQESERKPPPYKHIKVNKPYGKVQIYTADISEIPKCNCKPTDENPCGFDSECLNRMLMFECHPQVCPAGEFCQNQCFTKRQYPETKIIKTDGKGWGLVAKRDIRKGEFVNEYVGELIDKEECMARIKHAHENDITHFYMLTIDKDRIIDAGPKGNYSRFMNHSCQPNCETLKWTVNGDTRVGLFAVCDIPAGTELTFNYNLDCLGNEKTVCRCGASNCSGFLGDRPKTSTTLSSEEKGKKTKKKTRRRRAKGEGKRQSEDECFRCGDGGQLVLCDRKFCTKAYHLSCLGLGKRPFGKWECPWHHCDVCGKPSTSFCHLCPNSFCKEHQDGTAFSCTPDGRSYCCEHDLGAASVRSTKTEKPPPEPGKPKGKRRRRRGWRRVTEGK

[3] = molecular target: T2, NSD3 (Homo sapiens, UniProt Q9BZ95); test: as above; type: biochemical; parameters: residues 1021-1322, GST fusion, E. coli; conditions: nucleosomes, […] SAM, Bicine pH […] DTT, […] °C, single experiment
T2 sequence (Q9BZ95 1021-1322): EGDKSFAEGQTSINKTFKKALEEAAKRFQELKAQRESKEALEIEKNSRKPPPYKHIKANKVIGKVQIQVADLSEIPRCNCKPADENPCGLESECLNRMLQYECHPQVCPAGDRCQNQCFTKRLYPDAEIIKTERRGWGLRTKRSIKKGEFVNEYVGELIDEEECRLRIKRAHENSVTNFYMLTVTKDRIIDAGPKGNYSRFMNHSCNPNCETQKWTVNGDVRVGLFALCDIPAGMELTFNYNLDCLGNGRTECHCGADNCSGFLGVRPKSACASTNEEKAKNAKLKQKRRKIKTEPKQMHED

[4] = molecular target: DNMT1 (Homo sapiens, UniProt P26358); test: biochemical
[5] = molecular target: T3, EZH2 Complex (Homo sapiens, UniProt Q15910, Y641F); test: HotSpot [3H]SAM filter-binding methyltransferase assay; type: biochemical
T3 construct: five-member complex, Flag-EED, other subunits His-tagged, insect cells; with Zinc finger protein AEBP2; Polycomb protein EED; Polycomb protein SUZ12

[6] = molecular target: T4, SET8 (Homo sapiens, UniProt Q9NQR1); test: biochemical
T4 construct: gene KMT5A
T4 sequence (Q9NQR1 1-393): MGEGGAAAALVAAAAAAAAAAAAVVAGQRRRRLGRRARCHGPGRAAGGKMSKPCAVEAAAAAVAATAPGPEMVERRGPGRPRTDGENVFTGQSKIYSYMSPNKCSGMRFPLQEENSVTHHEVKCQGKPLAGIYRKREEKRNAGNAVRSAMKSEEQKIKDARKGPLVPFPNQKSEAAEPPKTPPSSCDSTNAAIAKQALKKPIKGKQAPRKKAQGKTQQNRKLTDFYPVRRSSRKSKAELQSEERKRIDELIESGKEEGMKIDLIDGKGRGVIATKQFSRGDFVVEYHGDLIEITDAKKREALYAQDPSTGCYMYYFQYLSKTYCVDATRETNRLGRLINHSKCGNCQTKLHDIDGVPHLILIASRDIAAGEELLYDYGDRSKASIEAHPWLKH

[7] = molecular target: ASH1L (Homo sapiens, UniProt Q9NR48); test: HotSpot [3H]SAM filter-binding methyltransferase assay; type: biochemical; parameters: residues 2046-2330, N-terminal His tag, E. coli
[8] = molecular target: DNMT3a (Homo sapiens, UniProt Q9Y6K1); test: biochemical
[9] = nucleosomes, […] SAM, pH […] MgCl2, […] DTT, […] °C, single experiment
[10] = read-out: DA3003-1 IC50, inhibitor

Sequence of DNMT3a (Q9Y6K1 whole entry, looked up): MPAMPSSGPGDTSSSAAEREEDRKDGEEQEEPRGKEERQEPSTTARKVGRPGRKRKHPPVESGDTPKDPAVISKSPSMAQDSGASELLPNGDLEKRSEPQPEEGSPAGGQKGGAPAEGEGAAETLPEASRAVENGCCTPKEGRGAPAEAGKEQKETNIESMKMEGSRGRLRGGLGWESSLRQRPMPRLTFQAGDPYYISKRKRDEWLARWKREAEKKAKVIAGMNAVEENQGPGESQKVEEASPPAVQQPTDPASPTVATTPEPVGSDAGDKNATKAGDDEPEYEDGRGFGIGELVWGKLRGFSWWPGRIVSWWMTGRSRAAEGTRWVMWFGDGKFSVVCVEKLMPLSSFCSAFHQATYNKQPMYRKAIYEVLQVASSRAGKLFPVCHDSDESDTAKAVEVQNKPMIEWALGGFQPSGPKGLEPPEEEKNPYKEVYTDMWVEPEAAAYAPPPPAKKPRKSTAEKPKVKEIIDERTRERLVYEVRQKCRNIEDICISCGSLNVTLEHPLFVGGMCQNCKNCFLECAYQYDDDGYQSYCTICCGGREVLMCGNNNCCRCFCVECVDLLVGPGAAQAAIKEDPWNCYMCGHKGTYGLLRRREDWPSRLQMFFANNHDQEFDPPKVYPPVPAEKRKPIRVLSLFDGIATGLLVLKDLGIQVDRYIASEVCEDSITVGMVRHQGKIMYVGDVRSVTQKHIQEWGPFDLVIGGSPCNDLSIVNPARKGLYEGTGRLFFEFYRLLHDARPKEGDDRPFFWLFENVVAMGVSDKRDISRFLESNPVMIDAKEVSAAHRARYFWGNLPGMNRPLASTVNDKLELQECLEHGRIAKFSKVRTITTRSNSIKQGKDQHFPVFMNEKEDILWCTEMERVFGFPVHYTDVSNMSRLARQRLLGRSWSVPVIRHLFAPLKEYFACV
T3 sequence (Q15910 2-746 Y641F): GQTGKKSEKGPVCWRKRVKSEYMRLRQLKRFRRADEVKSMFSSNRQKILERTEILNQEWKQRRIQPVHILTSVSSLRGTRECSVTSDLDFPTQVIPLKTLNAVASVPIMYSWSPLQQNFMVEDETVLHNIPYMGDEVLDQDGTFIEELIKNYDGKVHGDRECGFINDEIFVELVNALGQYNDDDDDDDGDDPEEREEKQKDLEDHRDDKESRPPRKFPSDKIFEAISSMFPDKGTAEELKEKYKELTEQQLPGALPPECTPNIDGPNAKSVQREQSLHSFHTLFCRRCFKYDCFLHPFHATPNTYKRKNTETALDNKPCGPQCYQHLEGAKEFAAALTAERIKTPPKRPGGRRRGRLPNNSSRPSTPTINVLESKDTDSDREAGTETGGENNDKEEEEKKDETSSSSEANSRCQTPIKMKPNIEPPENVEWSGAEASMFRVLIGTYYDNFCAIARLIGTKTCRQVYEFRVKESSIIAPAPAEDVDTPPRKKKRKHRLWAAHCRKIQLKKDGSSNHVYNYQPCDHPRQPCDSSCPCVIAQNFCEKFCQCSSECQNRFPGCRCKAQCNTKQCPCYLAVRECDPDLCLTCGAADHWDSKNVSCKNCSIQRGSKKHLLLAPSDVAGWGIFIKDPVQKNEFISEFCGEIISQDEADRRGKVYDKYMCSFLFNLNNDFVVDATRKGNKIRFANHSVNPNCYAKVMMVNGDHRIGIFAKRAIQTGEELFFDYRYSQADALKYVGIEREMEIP
T3 sequence (O75530 2-441 partner): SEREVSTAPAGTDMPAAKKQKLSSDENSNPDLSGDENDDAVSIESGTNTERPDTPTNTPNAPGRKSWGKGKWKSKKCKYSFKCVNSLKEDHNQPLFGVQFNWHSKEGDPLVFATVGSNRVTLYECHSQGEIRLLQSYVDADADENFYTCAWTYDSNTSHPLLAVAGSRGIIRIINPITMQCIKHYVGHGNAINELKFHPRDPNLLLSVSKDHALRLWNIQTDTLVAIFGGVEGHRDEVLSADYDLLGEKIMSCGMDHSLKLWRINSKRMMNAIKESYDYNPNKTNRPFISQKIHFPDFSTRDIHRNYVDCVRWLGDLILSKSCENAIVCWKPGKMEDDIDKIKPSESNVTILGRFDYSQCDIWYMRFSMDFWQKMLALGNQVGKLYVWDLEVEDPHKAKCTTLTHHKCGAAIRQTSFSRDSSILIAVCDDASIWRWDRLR
T3 sequence (Q15022 2-739 partner): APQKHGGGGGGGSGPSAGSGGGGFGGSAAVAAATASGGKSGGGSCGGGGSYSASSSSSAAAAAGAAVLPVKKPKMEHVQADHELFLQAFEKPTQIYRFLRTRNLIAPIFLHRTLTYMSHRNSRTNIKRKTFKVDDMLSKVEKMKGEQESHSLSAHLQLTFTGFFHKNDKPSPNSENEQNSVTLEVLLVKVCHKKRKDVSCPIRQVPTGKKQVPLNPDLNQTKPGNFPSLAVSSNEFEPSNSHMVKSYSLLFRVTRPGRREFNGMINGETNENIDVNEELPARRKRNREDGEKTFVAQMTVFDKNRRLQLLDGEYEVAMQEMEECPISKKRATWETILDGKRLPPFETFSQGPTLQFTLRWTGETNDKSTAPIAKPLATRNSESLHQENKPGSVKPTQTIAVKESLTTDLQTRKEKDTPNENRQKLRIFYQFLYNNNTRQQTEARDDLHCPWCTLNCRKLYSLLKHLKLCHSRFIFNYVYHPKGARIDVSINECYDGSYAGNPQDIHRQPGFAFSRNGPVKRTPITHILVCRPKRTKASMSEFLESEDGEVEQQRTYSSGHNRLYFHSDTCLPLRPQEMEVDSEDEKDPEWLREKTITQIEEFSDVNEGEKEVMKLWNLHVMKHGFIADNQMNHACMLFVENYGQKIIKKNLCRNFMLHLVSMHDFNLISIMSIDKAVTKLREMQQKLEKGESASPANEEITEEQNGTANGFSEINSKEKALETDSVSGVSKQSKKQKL
T3 sequence (Q09028 2-425 partner): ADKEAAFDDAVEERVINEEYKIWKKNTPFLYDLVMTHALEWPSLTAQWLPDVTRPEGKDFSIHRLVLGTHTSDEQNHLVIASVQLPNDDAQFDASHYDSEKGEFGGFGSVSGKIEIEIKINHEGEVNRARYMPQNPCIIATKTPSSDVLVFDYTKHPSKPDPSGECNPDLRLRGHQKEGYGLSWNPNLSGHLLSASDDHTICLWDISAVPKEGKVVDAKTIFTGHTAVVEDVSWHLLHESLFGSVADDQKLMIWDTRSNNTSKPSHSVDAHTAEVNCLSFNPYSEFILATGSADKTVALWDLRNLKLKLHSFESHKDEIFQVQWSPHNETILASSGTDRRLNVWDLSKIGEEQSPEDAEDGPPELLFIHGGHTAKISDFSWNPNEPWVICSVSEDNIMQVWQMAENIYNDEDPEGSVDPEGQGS
T3 sequence (Q6ZN18 2-517 partner): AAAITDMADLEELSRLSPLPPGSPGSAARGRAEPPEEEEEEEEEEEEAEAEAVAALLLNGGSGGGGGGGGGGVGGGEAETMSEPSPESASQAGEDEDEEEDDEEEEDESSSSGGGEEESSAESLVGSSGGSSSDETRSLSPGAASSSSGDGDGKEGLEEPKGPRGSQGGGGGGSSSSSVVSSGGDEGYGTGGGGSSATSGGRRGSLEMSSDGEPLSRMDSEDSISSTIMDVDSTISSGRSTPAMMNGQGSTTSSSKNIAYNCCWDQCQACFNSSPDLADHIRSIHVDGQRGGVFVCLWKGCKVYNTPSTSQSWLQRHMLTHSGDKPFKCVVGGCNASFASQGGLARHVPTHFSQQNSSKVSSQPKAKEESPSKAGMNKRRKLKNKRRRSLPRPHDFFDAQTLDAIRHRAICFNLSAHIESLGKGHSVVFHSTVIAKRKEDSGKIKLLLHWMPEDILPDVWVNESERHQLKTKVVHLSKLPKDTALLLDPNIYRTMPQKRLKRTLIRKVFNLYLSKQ

IC50 [1] [µM]	IC50 [2, 9] [µM]	IC50 [3] [µM]	IC50 [4, 10] [µM]	IC50 [5] [µM]	IC50 [6, 10] [µM]	IC50 [7] [µM]	IC50 [8, 10] [µM]	IC50 [1, 9] [µM]	IC50 [4] [µM]	IC50 ([5]; core histone, […] SAM, pH […] EDTA, […] DTT, […] °C, single experiment) [µM]	IC50 [6] [µM]	IC50 [7, 9] [µM]	IC50 [8] [µM]	IC50 [2] [µM]	Structure (SMILES)
0.25	0.11	0.26	1.7	0.68	4.4	0.2	1.1	–	–	–	–	–	–	–	O=C1C(Cl)=C(NCCN2CCOCC2)C(=O)c2ncccc21 [DA3003-1]
–	7.2	2.3	–	–	–	–	–	3.2	12	31	44	9.2	16	–	COc1cccc(-n2nc(C(=O)O)cc2-c2ccc(C3CCCCC3)c(Cl)c2)c1 [TC LPA5 4]
0.72	–	1.3	–	21	–	3.3	–	–	44	–	5.3	–	18	2.2	CC1(C)CCC(CN2CCN(c3ccc(C(=O)NS(=O)(=O)c4ccc(NCC5CCOCC5)c([N+](=O)[O-])c4)c(Oc4cnc5[nH]ccc5c4)c3)CC2)=C(c2ccc(Cl)cc2)C1 [ABT-199]
